Measured values from paper PMC3407958 (Pharmacotherapy, 2010).
Like-named read-outs stand apart in the source and are kept apart here. Marks after values point to notes of the source that are not given here.

How the values were obtained:
clinical = conditions: human, in vivo
[1] = human, in vivo
[2] = human, in vivo; remark: listed apart in the source
CYP3A = format: in vivo, human (healthy volunteers); conditions: for Cl/F / AUC(0-inf): geometric mean (90% CI); for AUC(0-inf): AUC0-∞, midazolam 8 mg single oral dose
[3] = tested on: intestinal and hepatic CYP3A; conditions: cited from earlier work
[4] = three weeks of garlic caplet supplementation; cited from earlier work
[5] = Post-Echinacea/Pre-Echinacea, GMR (90% CI)
[6] = Post-Echinacea/Pre-Echinacea, GMR (90% CI), listed as Midazolam
[7] = midazolam 8 mg oral, 28 days of echinacea, P > 0.05

Cc1cccc(C)c1OCC(=O)N[C@@H](Cc1ccccc1)[C@@H](O)C[C@H](Cc1ccccc1)NC(=O)[C@H](C(C)C)N1CCCNC1=O [lopinavir]
Tmax (clinical): 2 h
Tmax [1]: 2 h
T ½ [2]: 9.5 (7.4–11.6) hr

Cc1ncc2n1-c1ccc(Cl)cc1C(c1ccccc1F)=NC2 [midazolam]
Cl/F (CYP3A; Post-Echinacea (28 days), midazolam 8 mg oral): 77 (55–98) mL/hr
Tmax (CYP3A; Post-Echinacea (28 days), midazolam 8 mg oral, median (range)): 0.5 (0.5–1.5) ^c hr
AUC0-∞ geometric mean ratio (CYP3A; [5]): 0.73 (0.61, 0.85)
Cl/F geometric mean ratio (CYP3A; [5]): 1.37 (1.10, 1.63)
Cmax geometric mean ratio (CYP3A; [5]): 0.77 (0.58–0.96)
T ½ geometric mean ratio (CYP3A; [5]): 0.55 (0.40, 0.70)
AUC0-∞ geometric mean ratio (CYP3A; [6]): 0.73 (0.61–0.85)
Cl/F geometric mean ratio (CYP3A; [6]): 1.37 (1.10–1.63)
T ½ geometric mean ratio (CYP3A; [6]): 0.55 (0.40–0.70)
Cl/F (CYP3A; Pre-Echinacea, midazolam 8 mg oral): 56 (46–66) mL/hr
Change in midazolam exposure after E purpurea (CYP3A; after 28 days of E purpurea, P = 0.008): −27%
Increase in midazolam apparent oral clearance after E purpurea (CYP3A; after 28 days of E purpurea, P = 0.02): 37%
Reduction of midazolam half-life after E purpurea (CYP3A; after 28 days of E purpurea, P = 0.051): 45%
Tmax (CYP3A; human, plasma, po, 8 mg): 0.5 h
AUC(0-inf) (CYP3A; human, plasma, po, 8 mg, Post-Echinacea (28 days, 500 mg three times daily)): 104 ng·h/mL
AUC(0-inf) (CYP3A; human, plasma, po, 8 mg, Pre-Echinacea): 143 ng·h/mL
Change of Cmax after echinacea administration (CYP3A; [7]): unchanged
Change of Tmax after echinacea administration (CYP3A; [7]): unchanged
Increase in intestinal availability of midazolam ([3]; after E purpurea 1600 mg total daily dose for 8 days): 85%
Increase in oral availability of midazolam ([3]; after echinacea 400 mg 4 times daily for 8 days, P = 0.028): ~43%

CC(C)c1nc(CN(C)C(=O)N[C@H](C(=O)N[C@@H](Cc2ccccc2)C[C@H](O)[C@H](Cc2ccccc2)NC(=O)OCc2cncs2)C(C)C)cs1 [ritonavir]
T ½ [2]: 5.34 (4.46–6.22) hr
Tmax [2]: 1.8 (0–4.0) ^c hr

CC(C)(C)NC(=O)[C@@H]1C[C@@H]2CCCC[C@@H]2CN1C[C@@H](O)[C@H](Cc1ccccc1)NC(=O)[C@H](CC(N)=O)NC(=O)c1ccc2ccccc2n1 [saquinavir]
Decrease in AUC of saquinavir [4]: 51%
